Source: patent US20250144067A1, “PERSONALIZED STARVATION THERAPY FOR CANCER” (Faeth Therapeutics, Inc., priority 2021, published 2025)
Where a name gives a salt, the structure may show the parent alone. Read-outs that look alike come from different tables or passages of the source.

Tests used:
[1] = system: NCI-H292 lung cancer cells; experiment: FDA drug screening, complete media vs cholesterol-free media without statin (TABLE 1); assay type: cell-based, human
[2] = system: NCI-H292 lung cancer cells; experiment: FDA drug screening, complete media vs cholesterol-free media with simvastatin (TABLE 2); assay type: cell-based, human
[3] = NCI-H292 cells, cholesterol-free media without statin, FDA drug library screen
[4] = NCI-H292 cells, complete media, FDA drug library screen
[5] = complete vs cholesterol-free media, >0 enhanced anti-cancer activity, about 0 neutral, <0 antagonist
[6] = NCI-H292 cells, FDA library drug in cholesterol-free media with simvastatin 0.04 μM
[7] = NCI-H292 cells, FDA library drug in complete media
[8] = complete media vs cholesterol-free media + simvastatin (0.04 μM), >0 enhanced anti-cancer activity, about 0 neutral, <0 antagonist
[9] = Complete minus Cholesterol-free, >0 enhanced anti-cancer activity, about 0 neutral, <0 antagonist
[10] = NCI-H292 cells, cholesterol-free media without statin
[11] = Complete minus Cholesterol-free, greater than 0 enhanced anti-cancer activity, about 0 neutral, below 0 antagonist
[12] = NCI-H292 cells, FDA drug library screen, cholesterol-free media without statin
[13] = NCI-H292 cells, FDA drug library screen, complete media
[14] = NCI-H292 cells, cholesterol-free media with simvastatin 0.04 μM, cell growth value in FDA drug screen
[15] = complete media minus cholesterol-free media + simvastatin, >0 enhanced anti-cancer activity, about 0 neutral, <0 antagonist
[16] = complete vs cholesterol-free media, greater than 0 enhanced anti-cancer activity, about 0 neutral, below 0 antagonists
[17] = NCI-H292 cells, FDA drug library screen, cholesterol-free media with simvastatin 0.04 μM
[18] = NCI-H292 cells, cholesterol-free media with simvastatin 0.04 μM, FDA drug library screen (TABLE 2)
[19] = NCI-H292 cells, complete media, FDA drug library screen (TABLE 2)
[20] = complete media minus cholesterol-free media + simvastatin (0.04 μM), >0 enhanced anti-cancer activity, about 0 neutral, <0 antagonist
[21] = NCI-H292 cells, drug in cholesterol-free media with simvastatin 0.04 μM
[22] = NCI-H292 cells, drug in complete media
[23] = NCI-H292 cells, complete media, cell growth value in FDA drug screen

## CC(C)(C)CC(C)(C)c1ccc(OCCOCC[N+](C)(C)Cc2ccccc2)cc1 [Benzethonium chloride]
[1]
  Cholesterol-free: 0.07505
  Complete: 0.2197
  Difference: 0.14
[2]
  Cholesterol-free media + simvastatin (0.04 μM): 0.6785
  Complete Media: 0.4348
  Difference: −0.24

## O=C(Cn1ccnc1[N+](=O)[O-])NCc1ccccc1 [Benznidazol]
[1]; [3]
  Cholesterol-free: 1.047
[1]; [4]
  Complete: 1.215
[1]; [5]
  Difference: 0.17
[2]; [6]
  Cholesterol-free media + simvastatin (0.04 μM): 2.104
[2]; [7]
  Complete Media: 1.636
[2]; [8]
  Difference: −0.47

## CCOC(=O)c1ccc(N)cc1 [Benzocaine]
[1]; [9]
  Difference: −0.30
[1]; [10]
  Cholesterol-free: 0.9439
[1]; NCI-H292 cells, complete media
  Complete: 0.6479
[2]; [6]
  Cholesterol-free media + simvastatin (0.04 μM): 1.309
[2]; [7]
  Complete Media: 1.007
[2]; [8]
  Difference: −0.30

## O=C(O)c1ccccc1 [Benzoic acid]
[1]
  Cholesterol-free: 1.119
  Complete: 1.063
  Difference: −0.06
[2]
  Cholesterol-free media + simvastatin (0.04 μM): 1.277
  Difference: −0.11

## NS(=O)(=O)c1cc2c(cc1Cl)N=C(CSCc1ccccc1)NS2(=O)=O [Benzthiazide]
[1]; [11]
  Difference: −0.08
[1]; [12]
  Cholesterol-free: 0.9561
[1]; [13]
  Complete: 0.8751
[2]; [14]
  Cholesterol-free media + simvastatin (0.04 μM): 1.107
[2]; [15]
  Difference: 0.04

## CN(C)CCCOc1nn(Cc2ccccc2)c2ccccc12 [Benzydamine (hydrochloride)]
[1]; [10]
  Cholesterol-free: 1.444
[1]; NCI-H292 cells, complete media
  Complete: 1.002
[1]; [16]
  Difference: −0.44
[2]; [17]
  Cholesterol-free media + simvastatin (0.04 μM): 0.5074
[2]; [13]
  Complete Media: 1.108
[2]; [15]
  Difference: 0.60

## OCc1ccccc1 [Benzyl alcohol]
[1]; [11]
  Difference: −0.14
[1]; [12]
  Cholesterol-free: 1.033
[1]; [13]
  Complete: 0.8945
[2]; [17]
  Cholesterol-free media + simvastatin (0.04 μM): 0.8765
[2]; [13]
  Complete Media: 1.062
[2]; [15]
  Difference: 0.19

## O=C(OCc1ccccc1)c1ccccc1 [Benzyl benzoate]
[1]; [3]
  Cholesterol-free: 0.6319
[1]; [4]
  Complete: 1.132
[1]; [5]
  Difference: 0.50
[2]; [18]
  Cholesterol-free media + simvastatin (0.04 μM): 0.8319
[2]; [19]
  Complete Media: 0.7979
[2]; [20]
  Difference: −0.03

## O=C(O)CCCN1CCC(O[C@@H](c2ccc(Cl)cc2)c2ccccn2)CC1 [Bepotastine (besilate)]
[1]; [10]
  Cholesterol-free: 1.237
[1]; NCI-H292 cells, complete media
  Complete: 0.8985
[1]; [16]
  Difference: −0.34
[2]; [6]
  Cholesterol-free media + simvastatin (0.04 μM): 1.245
[2]; [7]
  Complete Media: 0.8639
[2]; [8]
  Difference: −0.38

## O=C(O)CCCN1CCC(O[C@@H](c2ccc(Cl)cc2)c2ccccn2)CC1 [Bepotastine]
[1]; [3]
  Cholesterol-free: 0.9809
[1]; [4]
  Complete: 1.256
[1]; [5]
  Difference: 0.28
[2]; [21]
  Cholesterol-free media + simvastatin (0.04 μM): 0.9667
[2]; [22]
  Complete Media: 0.7639
[2]; [8]
  Difference: −0.20

## CC(C)COCC(CN(Cc1ccccc1)c1ccccc1)N1CCCC1 (stereo not drawn) [Bepridil (hydrochloride hydrate)]
[1]; [9]
  Difference: −0.25
[1]; [10]
  Cholesterol-free: 1.151
[1]; NCI-H292 cells, complete media
  Complete: 0.8961
[2]; [17]
  Cholesterol-free media + simvastatin (0.04 μM): 1.501
[2]; [13]
  Complete Media: 1.762
[2]; [15]
  Difference: 0.26

## CC(C)COCC(CN(Cc1ccccc1)c1ccccc1)N1CCCC1 (stereo not drawn) [Bepridil hydrochloride]
[1]; [9]
  Difference: −0.19
[1]; [10]
  Cholesterol-free: 1.009
[1]; NCI-H292 cells, complete media
  Complete: 0.8157
[2]; [17]
  Cholesterol-free media + simvastatin (0.04 μM): 1.312
[2]; [13]
  Complete Media: 1.584
[2]; [15]
  Difference: 0.27

## COc1cc2c3cc1Oc1c(OC)c(OC)cc4c1[C@@H](Cc1ccc(O)c(c1)Oc1ccc(cc1)C[C@@H]3N(C)CC2)N(C)CC4 [Berbamine (dihydrochloride)]
[1]; [10]
  Cholesterol-free: 1.782
[1]; NCI-H292 cells, complete media
  Complete: 1.401
[1]; complete vs cholesterol-free media, […]
  Difference: −0.38
[2]; [17]
  Cholesterol-free media + simvastatin (0.04 μM): 0.2857
[2]; [13]
  Complete Media: 1.04
[2]; complete media minus cholesterol-free media + simvastatin, […]
  Difference: 0.75

## COc1ccc2cc3[n+](cc2c1OC)CCc1cc2c(cc1-3)OCO2.O.[Cl-] [Berberine (chloride hydrate)]
[1]; [11]
  Difference: −0.18
[1]; [12]
  Cholesterol-free: 0.263
[1]; [13]
  Complete: 0.07956
[2]; [18]
  Cholesterol-free media + simvastatin (0.04 μM): 0.3813
[2]; [19]
  Complete Media: 0.3495
[2]; [20]
  Difference: −0.03

## COc1ccc2cc3[n+](cc2c1OC)CCc1cc2c(cc1-3)OCO2.[Cl-] [Berberine (chloride)]
[1]; [11]
  Difference: −0.09
[1]; [12]
  Cholesterol-free: 0.2752
[1]; [13]
  Complete: 0.1873
[2]; [14]
  Cholesterol-free media + simvastatin (0.04 μM): 0.3544
[2]; [23]
  Complete Media: 0.3946
[2]; [15]
  Difference: 0.04

## COc1c(O)cc2c(c1O)[C@@H]1O[C@H](CO)[C@@H](O)[C@H](O)[C@H]1OC2=O [Bergenin]
[1]; [9]
  Difference: −0.21
[1]; [10]
  Cholesterol-free: 0.9949
[1]; NCI-H292 cells, complete media
  Complete: 0.7827
[2]; [14]
  Cholesterol-free media + simvastatin (0.04 μM): 0.6754
[2]; [23]
  Complete Media: 0.7494
[2]; [15]
  Difference: 0.07

## Nc1ncc2ncn(CC3(OCP(=O)(O)O)CC3)c2n1 [Besifovir]
[1]; [10]
  Cholesterol-free: 1.23
[1]; NCI-H292 cells, complete media
  Complete: 0.9121
[1]; [16]
  Difference: −0.32
[2]; [14]
  Cholesterol-free media + simvastatin (0.04 μM): 0.9124
[2]; [23]
  Complete Media: 0.9846
[2]; [15]
  Difference: 0.07

## CC(C)C[C@H](NC(=O)[C@@H](O)[C@H](N)Cc1ccccc1)C(=O)O [Bestatin (hydrochloride)]
[1]; [10]
  Cholesterol-free: 1.217
[1]; NCI-H292 cells, complete media
  Complete: 0.9083
[1]; [16]
  Difference: −0.31
[2]; [17]
  Cholesterol-free media + simvastatin (0.04 μM): 1.299
[2]; [8]
  Difference: −0.15

## CC(C)C[C@H](NC(=O)[C@@H](O)[C@H](N)Cc1ccccc1)C(=O)O [Bestatin]
[1]; [10]
  Cholesterol-free: 1.255
[1]; NCI-H292 cells, complete media
  Complete: 0.8191
[1]; [16]
  Difference: −0.44
[2]; [6]
  Cholesterol-free media + simvastatin (0.04 μM): 1.263
[2]; [7]
  Complete Media: 0.9917
[2]; [8]
  Difference: −0.27

## CNCCc1ccccn1 [Betahistine (dihydrochloride)]
[1]; [10]
  Cholesterol-free: 1.528
[1]; NCI-H292 cells, complete media
  Complete: 1.139
[1]; [16]
  Difference: −0.39
[2]; [21]
  Cholesterol-free media + simvastatin (0.04 μM): 1.02
[2]; [22]
  Complete Media: 0.8007
[2]; [8]
  Difference: −0.22

## CNCCc1ccccn1.CS(=O)(=O)O.CS(=O)(=O)O [Betahistine (mesylate)]
[1]; [10]
  Cholesterol-free: 1.235
[1]; NCI-H292 cells, complete media
  Complete: 0.8713
[1]; [16]
  Difference: −0.36
[2]; [18]
  Cholesterol-free media + simvastatin (0.04 μM): 1.015
[2]; [19]
  Complete Media: 1.025
[2]; [20]
  Difference: 0.01

## CNCCc1ccccn1 [Betahistine]
[1]; [11]
  Difference: −0.10
[1]; [12]
  Cholesterol-free: 1.192
[1]; [13]
  Complete: 1.087
[2]; [21]
  Cholesterol-free media + simvastatin (0.04 μM): 1.266
[2]; [22]
  Complete Media: 1.062
[2]; [8]
  Difference: −0.20

## C[N+](C)(C)CC(=O)O [Betaine (hydrochloride)]
[1]; Complete minus Cholesterol-free, greater than 0 enhanced anti-cancer activity, about 0 neutral, below 0 antagonists
  Difference: −0.76
[1]; NCI-H292 cells in cholesterol-free media without statin
  Cholesterol-free: 1.594
[1]; NCI-H292 cells in complete media
  Complete: 0.8295
[2]; [21]
  Cholesterol-free media + simvastatin (0.04 μM): 1.292
[2]; [22]
  Complete Media: 1.099
[2]; [8]
  Difference: −0.19

## CCC(=O)OCC(=O)[C@@]1(OC(=O)CC)[C@@H](C)C[C@H]2[C@@H]3CCC4=CC(=O)C=C[C@]4(C)[C@@]3(F)[C@@H](O)C[C@@]21C [Betamethasone dipropionate]
[1]; [9]
  Difference: −0.28
[1]; [10]
  Cholesterol-free: 0.9149
[1]; NCI-H292 cells, complete media
  Complete: 0.6317
[2]; [14]
  Cholesterol-free media + simvastatin (0.04 μM): 0.5238
[2]; [23]
  Complete Media: 0.6181
[2]; [15]
  Difference: 0.09
